Measured values published in US20150284362A1, “CARBAZOLE-CONTAINING AMIDES, CARBAMATES, AND UREAS AS CRYPTOCHROME MODULATORS” (ReSet Therapeutics, Inc., priority 2014, published 2015).

How the values were obtained:
[1] = system: db/db mice
Description: Male db/db mice homozygous for Lepr^db (6 weeks of age), were obtained from The Jackson Laboratory (Bar Harbor, Me.). Mice were group housed on a normal light/dark cycle (lights on: 07:00-19:00 h) with ad libitum access to a standard pelleted mouse diet and water. Animals were accustomed to these conditions for 2 weeks before experimentation. […] At 10:30 pm on the evening prior to endpoint measurement, mice were placed into clean cages and given free access to water, but not food for a period of 12 hours before the fasting blood glucose measurement. On the final day of the study, animals were dosed as normal, and then underwent a tail cut injury 2 hours prior to measurement of fasting blood glucose, to allow recovery from any stress the procedure might cause. Fasting blood glucose (FBG) was assessed from the animals at 10:30 am using an AlphaTRAK glucometer (Abbott Laboratories, USA). Following the FBG measurement blood was collected from each mouse, using a tail milking technique, into a capillary tube. Capillary tubes were centrifuged in a hematocrit (BD Triac 0200) and the resultant plasma transferred to an eppendorff. This sample, labelled as t=0 hr, was frozen at −80° C. to allow later measurement of insulin. At 11:30 am each animal was dosed with 0.5 g/kg of glucose, then blood glucose was measured at t=15, 30, 60, 90 and 120 minutes after glucose load. At the end of the OGTT blood was collected for a t=2 hr insulin determination as described above.
Fasting blood glucose values and glucose measurements taken during the OGTT were averaged and graphed (GraphPad Prism, GraphPad Software, La Jolla, Calif.). The area under the curve (AUC) was calculated for each individual animal. Plasma insulin levels were determined using an Ultrasensitive Insulin ELISA (ALPCO, Salem, N.H.). […] Insulin data was also represented in GraphPad Prism format. Statistical analysis was performed using one-way ANOVA followed by the appropriate post-test. Significance was accepted when p<0.05. Data are presented as mean and S.E.M.

[2] = system: C57/Bl6J DIO mice; assay: Increasing dosages of Compound 72 over 7 days in diet-induced obesity (DIO) mouse model; assay type: in vivo; settings: 30 mg/kg PO QD 7 days
Excerpt: (§1) Male C57/Bl6J DIO mice were obtained from The Jackson Laboratory (Sacramento, Calif.). […] Animals were accustomed to these conditions for at least 2 weeks before experimentation and used at approximately 24 weeks of age.
(§2) Significance was accepted when p<0.05.
Male C57/Bl6J DIO mice were obtained from The Jackson Laboratory (Sacramento, Calif.). […] Animals were accustomed to these conditions for at least 2 weeks before experimentation and used at approximately 26 weeks of age.

[3] = system: C57/Bl6J DIO mice; assay: 7 day dosing in diet-induced obesity (DIO) mouse model of type II diabetes; assay type: in vivo; settings: 30 mg/kg PO QD 7 days (positive control)
Excerpt: as §1, §2

[4] = system: core clock gene mRNAs in liver; assay: Four day study, liver core clock gene mRNA, ICR mice; assay type: in vivo, mouse; settings: 50 mg/kg PO BID 4 days, ZT6
Description: Male ICR mice (weighing 30-35 g), obtained from Charles River Laboratories (Hollister, Calif.), were used for the experiment following at least 3 days of acclimation. Mice were dosed with vehicle (WFI or 10% Kolliphor) or compound (50 mg/kg, dose volume 5 mL/kg, PO) for 4 days BID (twice a day), beginning in the afternoon of the first day. The last dose of compound or vehicle was administered on the morning of harvest. On the day of harvest (6 hours following the final dose), mice were euthanized by CO2 asphyxiation and 50 mg of liver tissue was excised and placed in a tube containing 500 μl of RNA later.
E.Z.N.A.® HP Total RNA Isolation Kits (R6812-01 and the protocol described in the Manual, Revised 2010) were utilized to prepare and isolate RNA from the liver samples. To prepare the RNA samples, 10-30 mg of sample was removed from RNA-Later and placed in a 1.5 ml microfuge tube. […] The cleared supernatant was transferred by pipetting to a DNA Clearance Column Pre-inserted in a 2 mL Collection Tube. The assembled column was centrifuged at 13,000×g for 1 minute, and the flow-through was saved. An equal volume (700 μl) of 70% ethanol was added to the lysate and mixed. The sample was then applied to a HiBind RNA spin column placed into a 2 ml collection tube, which was centrifuged at 10,000×g for 60 seconds at room temperature. RNA Wash Buffer I (250 μl) was added by pipetting directly onto a new HiBind RNA column inserted in a 2 ml collection tube. The assembled column was centrifuged at 10,000×g for 60 seconds. The RNA column was placed into a new 2 ml collection tube. […] The column with bound RNA was incubated at room temperature (25-30° C.) for 15 minutes. RNA Wash Buffer I (500 μl) was added to the column and placed on a bench top for 2 minutes. After centrifuging at 10,000×g for 60 seconds, discarding the flow-through, 500 μl of RNA Wash Buffer II was added and centrifuged at 10,000×g for 60 seconds. Another 500 μl of RNA Wash Buffer II was added and the column assembly was centrifuged at 10,000×g for 60 seconds. The column was centrifuged for 2 minutes at maximum speed to completely dry the HiBind matrix. The column was placed in a clean 1.5 ml microcentrifuge tube and 40-70 μl of molecular biology grade water is added. After sitting for 1 minute, the column was centrifuged for 2 minutes at maximum speed to elute the RNA. The isolated RNA was collected into the collection tube.
RediPlate 96 RiboGreen RNA Quantification Kit (Invitrogen) RediPlate standard curve was prepared by transferring 20 μl reconstituted RNA standard to a RediPlate well reconstituted in 180 μl RediPlate TE buffer. For liver RNAs prepared from 30-100 mg of tissue using a kit similar to the Omega Bio-Tek HP Total RNA Kit and eluted in RNAse-free water in a volume of 50 μl (microliters), 5 μl of the total RNA is diluted in 195 μl of RediPlate TE buffer (1:40 dilution of RNA), mix. […] Alternatively, one can use the FlexStation 3 with Ex 488 nm and Em 525 nm and a Cutoff of 515 nm.

SMILES | HOMA-IR ([1]; 30 mg/kg PO QD 7 days) | plasma insulin at t=0 ([1]; 30 mg/kg PO QD 7 days) | plasma insulin at t=2 hr ([1]; 30 mg/kg PO QD 7 days) | fasting blood glucose ([1]; 30 mg/kg PO QD 7 days (positive control)) | fasting blood glucose [2] | HOMA-IR [3] | fasting blood glucose [3] | plasma insulin at t=0 [3] | plasma insulin at t=2 hr [3] | liver Per2 expression [4] | Cry2 transcripts in liver [4]
CN(CCOc1ccc(CC2SC(=O)NC2=O)cc1)c1ccccn1 (stereo not drawn) [Rosiglitazone] | 50.58+/−3.52 units | 3.05 ± 0.14 ng/mL | 2.28 ± 0.08 ng/mL | 280.4 ± 13.66 mg/dL | 161.1 ± 8.06 mg/dL | 24.60+/−1.42 units | 153.9 ± 5.05 mg/dL | 2.70 ± 0.12 ng/mL | 2.30 ± 0.06 ng/mL | – | –
COC1CCCN(CC(O)Cn2c3ccc(F)cc3c3cc(F)ccc32)C1=O (stereo not drawn) [Compound 57, 1-(3-(3,6-difluoro-9H-carbazol-9-yl)-2-hydroxypropyl)-3-methoxypiperidin-2-one] | – | – | – | – | – | – | – | – | – | suppression | –
O=C1C2CCC(C2)N1CC(O)Cn1c2ccc(F)cc2c2cc(F)ccc21 (stereo not drawn) [Compound 48, 2-(3-(3,6-difluoro-9H-carbazol-9-yl)-2-hydroxypropyl)-2-azabicyclo[2.2.1]heptan-3-one] | – | – | – | – | – | – | – | – | – | suppression | decrease
